Converted amounts (≈) assume the structure as drawn.

The conditions of the data set: buffer; pH 7.4; 200.0 µM.
Turning to `O=S(=O)(NCC1CC1)c1cc(Cl)cc(Cl)c1`, the kinetic solubility (commonly solubility judged after dilution from a stock solution rather than from solid) came out at 10.2 µg/mL (≈ 36.4 µM). Compound `COc1ccc(OC)c(N(CC(=O)N2CCCC2)S(C)(=O)=O)c1` yielded a solubility (kinetic) of more than 51.4 µg/mL.

`Cc1cccc(Nc2nc(N)nc(CCl)n2)c1` registered a kinetic solubility of more than 37.5 µg/mL. Under `CC(C)Nc1nc2cccnc2s1` stands more than 29 µg/mL.

Compound `O=[N+]([O-])c1ccccc1Nc1nc(-c2cccnc2)cs1` yielded a kinetic solubility of 1.7 µg/mL (≈ 5.7 µM). In turn, `O=S(=O)(Nc1cccc(CO)c1)c1cccs1` returned a kinetic solubility of more than 40.4 µg/mL. Take `O=C(CSc1nccc(=O)[nH]1)NCc1ccco1`: the solubility (kinetic) was more than 39.8 µg/mL.

Consider `Cc1ccc(S(=O)(=O)Nc2ccsc2C#N)cc1`, for which the solubility (kinetic) is more than 41.8 µg/mL. Under `Cc1ccccc1-n1c2nc(=O)n(C)c(=O)c-2cc2ccccc21` stands more than 47.6 µg/mL; under `Cc1ccccc1NC(=O)CCCNC(=O)c1ccc(Cl)cc1`, 42.6 µg/mL (≈ 129 µM). Under `COc1ccc(OC)c(NC(=S)N2CCCC2)c1` stands more than 40 µg/mL; under `CC(=O)c1cccc(S(=O)(=O)NCCC(=O)O)c1`, 25.4 µg/mL (≈ 93.6 µM); under `O=C(O)c1ccc2c(c1)C(=O)N(c1ccc([N+](=O)[O-])cn1)C2=O`, more than 47 µg/mL. The same measure for `O=C(COC(=O)c1cccc(O)c1)NC(=O)Cc1ccccc1`: more than 47 µg/mL. `COc1ccc(NC(=O)C2CCCN(C(=O)Nc3ccc(F)cc3)C2)cc1OC` (stereo not given) returned a kinetic solubility of 13.2 µg/mL (≈ 32.9 µM). `COc1ccc(-c2ncncc2-c2ccc(OC)c(OC)c2)c(O)c1` registered a kinetic solubility of more than 50.8 µg/mL. The same measure for `COc1ccccc1NC(=O)C1(c2ccccc2)CCCC1`: 7.9 µg/mL (≈ 26.7 µM); for `COC(=O)CCN(C(=O)c1ccc([N+](=O)[O-])cc1)c1ccccn1`: more than 49.4 µg/mL.

As for `Cc1c(Cl)cccc1NC(=O)Nc1cccnc1`, the solubility (kinetic) worked out at 34.9 µg/mL (≈ 133 µM). The same measure for `CC(C)C(=O)N=c1sc2cccc(F)c2n1C`: 13.2 µg/mL (≈ 52.3 µM); for `CCC(C)[C@H](NC(=O)Nc1ccccc1F)C(=O)OC` (stereo not given in full): more than 42.3 µg/mL.

Regarding `COc1cc(C2NC(=O)NC(C)=C2C(C)=O)cc(OC)c1OC` (stereo not given), the solubility (kinetic) amounted to 38.7 µg/mL (≈ 121 µM). Under `O=C(Cc1ccccc1)Nc1ccc(C(=O)NCc2ccccc2)cc1` stands less than 0.4 µg/mL. As to `O=C(COC(=O)C1CC2C=CC1C2)Nc1ccccc1F` (stereo not given), the solubility (kinetic) was more than 43.4 µg/mL. The same measure for `COc1ccc(CCC(=O)NCC2CCCCC2)cc1OC`: more than 45.8 µg/mL; for `CC(=O)c1cc2c(cc1NC(=O)c1ccc(Cl)cc1)OCCO2`: less than 0.7 µg/mL; for `O=C(Nc1cccc(Cl)c1)Nc1csc([N+](=O)[O-])c1`: 0.5 µg/mL (≈ 1.68 µM).

Regarding `CCOc1ccc(N(C(=O)C2CCCO2)C2C=CS(=O)(=O)C2)cc1` (stereo not given), the kinetic solubility was more than 52.7 µg/mL. The same measure for `Cc1ccc(C)c(NC(=O)Cc2nc(CNCC(C)C)cs2)c1`: 47.1 µg/mL (≈ 142 µM); for `O=C(CC12CC3CC(CC(C3)C1)C2)NC1CC1`: 30 µg/mL (≈ 129 µM). The same measure for `COc1ccc(NC(=O)CCN2C(=O)c3ccccc3C2=O)cc1`: 23.1 µg/mL (≈ 71.2 µM). Compound `CC(=O)Nc1nc2ccccc2n1Cc1ccc(Cl)cc1` gave a solubility (kinetic) of 7.8 µg/mL (≈ 26 µM). For `Cc1nc2ccccc2n1Cc1ccc(Br)cc1`, the solubility (kinetic) came to 37.8 µg/mL (≈ 126 µM). Against the preceding compound, the solubility kinetic is about 4.8-fold higher.

On to `COc1ccc(/C(N)=N/OC(=O)CCC2CCCC2)cc1`, for which the kinetic solubility was determined as 4.2 µg/mL (≈ 14.5 µM).

For `CC(C)n1c(N2CCCC2)nc2c1c(=O)[nH]c(=O)n2C`, the kinetic solubility was more than 41.6 µg/mL. Under `O=C(Nc1sc(-c2ccccc2)cc1C(=O)O)c1ccccc1` stands 45.1 µg/mL (≈ 139 µM); under `CCOC(=O)c1c(C)[nH]c(C(=O)COC(=O)c2ccco2)c1C`, 3.1 µg/mL (≈ 9.71 µM). Under `COCCCNc1nc(N)c([N+](=O)[O-])c(NCC2CCCO2)n1` (stereo not given) stands more than 49 µg/mL; under `Fc1ccc(CN2CCC(Cc3ccccc3)CC2)cc1F`, 8 µg/mL (≈ 26.5 µM). Compound `COC(=O)C(=CC(=CN(C)C)C=C(C(=O)OC)C(=O)OC)C(=O)OC` had a solubility (kinetic) of more than 53.3 µg/mL.

For `CCOc1c(O)ccc(/C=C2\SC(=S)NC2=O)c1[N+](=O)[O-]`, the kinetic solubility was 6.8 µg/mL (≈ 20.8 µM).

In the case of `O=C(COc1ncnc2ccccc12)Nc1ccccc1[N+](=O)[O-]`, the kinetic solubility is 14.6 µg/mL (≈ 45 µM). Under `O=C(Nc1nc2ccc(Br)cc2s1)c1ccco1` stands less than 0.3 µg/mL; under `COc1ccc(S(=O)(=O)Nc2cc(C)on2)cc1NC(C)=O`, more than 48.8 µg/mL. The same measure for `COc1ccc(NC(=O)NC2(C(=O)N3CCOCC3)CCCCC2)cc1`: 43 µg/mL (≈ 119 µM). The same measure for `Clc1ccc(-c2cnc3n2CCCCC3)cc1`: more than 37 µg/mL. For the compound `Cc1ccc(NC(=O)CNC(=O)c2cccs2)c(O)c1`, the kinetic solubility came out at 21.7 µg/mL (≈ 74.7 µM). Under `CC(C)CC(=O)N1CCN(C(=O)c2ccco2)CC1` stands more than 39.6 µg/mL. The compound `NNC(=O)c1oc2ccccc2c1-n1cccc1` showed a kinetic solubility of more than 36.2 µg/mL.

The compound `CC1=NOC(=O)/C1=C/c1ccc(O)c(Cl)c1` registered a kinetic solubility of more than 35.6 µg/mL. As to `O=C(c1ccc([N+](=O)[O-])cc1)N1CCCC1`, the solubility (kinetic) is more than 33 µg/mL. The same measure for `Cc1cccc(NC(=O)C2CCCN(c3cnccn3)C2)c1` (stereo not given): 27.2 µg/mL (≈ 91.8 µM); for `Cc1ccc(NCC(=O)N/N=C/c2cc(O)ccc2[N+](=O)[O-])cc1`: more than 49.2 µg/mL. The same measure for `COc1cc(CNCC2CCCO2)ccc1OCC(N)=O.Cl` (stereo not given): 49 µg/mL; for `CCn1c(=O)c2sccc2n(Cc2ccccc2)c1=O`: 8.9 µg/mL (≈ 31.1 µM); for `CCCS(=O)(=O)C/C(N)=N/OC(=O)c1ccc(Cl)cc1`: 34.3 µg/mL (≈ 108 µM).

On to `CC(=O)N1N=C(c2ccccc2)OC1c1cccnc1` (stereo not given), for which the kinetic solubility is more than 40.1 µg/mL.

As for `Cc1cc(=O)n2c(n1)SCOC2`, the solubility (kinetic) is more than 27.6 µg/mL. The same measure for `CCc1cc(=O)oc2cc(OCC(=O)N3CCC[C@H]3C(=O)O)ccc12`: more than 51.8 µg/mL; for `Cc1cccnc1NC(=O)CCCc1c[nH]c2ccccc12`: 36.8 µg/mL (≈ 125 µM); for `COC(=O)[C@H](C)NC(=O)NCCC1=CCCCC1`: more than 38.1 µg/mL. For the compound `CN(C)CCN(Cc1cccs1)c1ccccn1.Cl`, the solubility (kinetic) was more than 44.7 µg/mL. Under `Cc1ccc(C(=O)NCC(=O)NC2CC2)cc1` stands 33.4 µg/mL (≈ 144 µM); under `COc1ccccc1CN(C)C(=O)c1cnc(C)cn1`, more than 40.7 µg/mL; under `OC(CN1CCN(c2ccc(C(F)(F)F)cn2)CC1)c1ccccc1` (stereo not given), 1.8 µg/mL (≈ 5.12 µM). The same measure for `O=CN1CCN(CC(O)Cn2c3ccccc3c3ccccc32)CC1` (stereo not given): 43.3 µg/mL (≈ 128 µM); for `CC(C)(Oc1ccc(Cl)cc1)C(=O)NC1CCCCC1`: 3.9 µg/mL (≈ 13.2 µM); for `CC(C)c1cc(NCc2ccccn2)n2c(nc3ccccc32)c1C#N`: less than 0.1 µg/mL. Under `COc1ccccc1NC(=O)COC(=O)CCC1CCCC1` stands 42.1 µg/mL (≈ 138 µM). Turning to `Cc1ccc(C(=O)OC(C)C(=O)NC2CCCCC2C)s1` (stereo not given), the kinetic solubility came to 14.6 µg/mL (≈ 47.2 µM). For `CC(C)c1cccc(C(C)C)c1OC(=O)NC(=O)c1c(F)cccc1F`, the kinetic solubility turned out to be 17.4 µg/mL (≈ 48.1 µM).

Compound `Cc1cc(NC(=O)c2ccc(Cl)c([N+](=O)[O-])c2)no1` displayed a solubility (kinetic) of 0.8 µg/mL (≈ 2.84 µM).

The compound `O=[N+]([O-])c1ccc(N2CCN(c3ccccc3F)CC2)nc1` gave a kinetic solubility of 0.7 µg/mL (≈ 2.32 µM).

Regarding `O=C1c2oc3ccccc3c(=O)c2C(c2ccc(O)cc2)N1c1nccs1` (stereo not given), the solubility (kinetic) stood at 0.8 µg/mL (≈ 2.13 µM). This solubility kinetic and that of the compound before are within 1.5-fold of each other. In the case of `COC(=O)C1=C(C)N(C)C(=O)NC1c1c(O)ccc2ccccc12` (stereo not given), the kinetic solubility was more than 49 µg/mL. Take `CCOC(=O)C1CCCN(C(=O)c2cccc3ccccc23)C1` (stereo not given): the kinetic solubility was more than 46.7 µg/mL.

Turning to `CCCCc1nc2ccc(S(=O)(=O)O)cc2[nH]1`, the solubility (kinetic) worked out at 31.4 µg/mL (≈ 123 µM). Compound `CC(CCc1ccccc1)NCCC#N.Cl` (stereo not given) displayed a solubility (kinetic) of more than 35.8 µg/mL. Under `CC(=O)c1c(COC(=O)c2ccc(F)cc2)nc2ccccc2[n+]1[O-]` stands 2.4 µg/mL (≈ 7.05 µM); under `Oc1ccc(-c2nc3ccccc3s2)cc1`, 6.6 µg/mL (≈ 29 µM). The same measure for `CC(C)(C)c1ccc(C(=O)NCC(=O)N2CCCC2)cc1`: more than 43.3 µg/mL; for `COc1cccc(C(=O)COc2ccc(NC(=O)c3ccccc3)cc2)c1`: less than 0.8 µg/mL. The same measure for `COC1CC(C)NC(=S)N1` (stereo not given): more than 24 µg/mL. For `Cn1cccc1C(=O)c1cccc([N+](=O)[O-])c1`, the kinetic solubility came out at 14.3 µg/mL (≈ 62.1 µM).

Compound `C/[N+]([O-])=C/c1c(OCc2ccccc2)ccc2ccccc12` registered a kinetic solubility of more than 43.7 µg/mL. Under `Cc1cc(F)ccc1NC(=O)c1cccnc1` stands more than 34.5 µg/mL. Under `O=C(CCC(=O)Nc1cccc([N+](=O)[O-])c1)NCc1ccccc1` stands 48.5 µg/mL (≈ 148 µM). The same measure for `CCC(C)c1ccccc1NC(=O)c1cc(C)no1` (stereo not given): more than 38.7 µg/mL; for `CC1CN(CC(=O)NCc2ccccc2)CC(C)O1` (stereo not given): 36.1 µg/mL (≈ 138 µM). `Cc1cc(NC(=O)CSc2nc3ccccc3n2CCC#N)no1` returned a kinetic solubility of 7.7 µg/mL (≈ 22.6 µM). The same measure for `COC(=O)c1ccc(CNC(=O)C23CC4CC(CC(C4)C2)C3)cc1`: 6.2 µg/mL (≈ 18.9 µM); for `CC(=O)Nc1ccc(NC(=O)C(C)OC(=O)C23CC4CC(CC(Cl)(C4)C2)C3)cc1` (stereo not given): 61.5 µg/mL (≈ 147 µM); for `COc1ccc(C(=O)O)cc1S(=O)(=O)NC(C)(C)C`: more than 43.1 µg/mL. The same measure for `Cc1ccc(CSc2ncnc3onc(C)c23)cc1`: less than 0.2 µg/mL; for `Cc1cc(C)cc(NC(=O)CC2Oc3ccc(C)cc3NC2=O)c1` (stereo not given): 1.6 µg/mL (≈ 4.93 µM); for `Cc1ccc(S(=O)(=O)N2CCN(Cc3cccnc3)CC2)cc1`: more than 49.7 µg/mL. Turning to `CCOC(=O)/C(C#N)=C/C1=C(N2CCOCC2)CC(C)(C)OC1`, the kinetic solubility was more than 48.1 µg/mL. The same measure for `O=C(CCc1nc(-c2ccc(Cl)cc2)no1)NC1CCCC1`: 6.4 µg/mL (≈ 20 µM); for `CNc1snc(C)c1C(=O)OC(C)C(=O)Nc1cccc(C)c1` (stereo not given): 4.8 µg/mL (≈ 14.4 µM). Under `COC(=O)c1ccccc1NC(=O)CN1CCCCCC1` stands 31.6 µg/mL (≈ 109 µM); under `S=C(NCc1ccccc1)N1CCN(c2ccccc2)CC1`, 0.5 µg/mL (≈ 1.61 µM). Under `OCCN(Cc1ccccc1)C(=S)Nc1ccc(F)cc1` stands 43.1 µg/mL (≈ 142 µM); under `Cc1nnc(NC(=O)C2CCCC2)s1`, more than 31.7 µg/mL. Turning to `COc1ccc(NC(=O)COC(=O)c2ccc([N+](=O)[O-])o2)cc1Cl`, the solubility (kinetic) turned out to be 19.2 µg/mL (≈ 54.1 µM).

In the case of `Cc1ccc(C(=O)NCCC(=O)Nc2ccccc2C)cc1`, the solubility (kinetic) was more than 44.5 µg/mL.

The values above are taken from PubChem BioAssay AID1996.
